Laboratory results taken from article PMC8213057, “Targeting ALK2: An Open Science Approach to Developing Therapeutics for the Treatment of Diffuse Intrinsic Pontine Glioma” (Journal of Medicinal Chemistry, 2020).

How the values were obtained:
MAST3 = MAST3 (Homo sapiens, UniProt O60307); experiment: biochemical; conditions: read-out: % enzyme activity, 1 μM; Run 1, Run 2
JAK3 = target: T1, JAK3 (Homo sapiens, UniProt P52333); experiment: biochemical; conditions: read-out: % enzyme activity, 1 μM; Run 1, Run 2
T1 sequence (P52333 1-1124): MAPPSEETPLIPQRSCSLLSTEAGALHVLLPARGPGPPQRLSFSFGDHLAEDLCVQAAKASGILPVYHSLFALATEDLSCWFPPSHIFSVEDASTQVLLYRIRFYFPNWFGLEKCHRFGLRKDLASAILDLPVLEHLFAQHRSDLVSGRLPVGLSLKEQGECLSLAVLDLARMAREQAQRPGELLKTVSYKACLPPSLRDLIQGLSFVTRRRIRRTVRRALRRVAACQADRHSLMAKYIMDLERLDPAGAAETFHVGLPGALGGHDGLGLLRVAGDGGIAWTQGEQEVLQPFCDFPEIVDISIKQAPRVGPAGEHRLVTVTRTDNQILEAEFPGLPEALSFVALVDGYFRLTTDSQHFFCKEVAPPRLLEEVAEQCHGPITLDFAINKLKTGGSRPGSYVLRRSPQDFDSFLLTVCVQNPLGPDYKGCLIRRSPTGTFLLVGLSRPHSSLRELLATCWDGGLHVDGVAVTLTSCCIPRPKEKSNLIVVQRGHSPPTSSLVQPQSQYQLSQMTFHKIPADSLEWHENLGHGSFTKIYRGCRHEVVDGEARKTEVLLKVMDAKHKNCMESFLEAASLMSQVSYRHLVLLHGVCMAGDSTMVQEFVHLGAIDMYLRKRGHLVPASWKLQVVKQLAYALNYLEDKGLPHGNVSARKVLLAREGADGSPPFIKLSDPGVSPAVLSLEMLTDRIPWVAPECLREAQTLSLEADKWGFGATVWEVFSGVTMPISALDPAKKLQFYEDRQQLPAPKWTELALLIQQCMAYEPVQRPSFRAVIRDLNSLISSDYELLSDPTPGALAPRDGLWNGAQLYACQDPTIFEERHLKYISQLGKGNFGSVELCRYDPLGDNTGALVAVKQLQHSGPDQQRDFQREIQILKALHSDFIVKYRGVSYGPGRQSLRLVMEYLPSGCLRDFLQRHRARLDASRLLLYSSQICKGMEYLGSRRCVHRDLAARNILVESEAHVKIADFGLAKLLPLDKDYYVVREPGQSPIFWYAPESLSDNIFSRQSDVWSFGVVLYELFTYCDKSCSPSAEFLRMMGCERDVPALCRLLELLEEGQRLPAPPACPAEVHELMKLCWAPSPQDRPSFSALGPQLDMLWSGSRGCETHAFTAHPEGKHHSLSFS

AURORA B = AURORA B (Homo sapiens, UniProt Q96GD4); conditions: 1 μM; Run 1, Run 2
TYRO3/SKY = target: T2, TYRO3/SKY (Homo sapiens, UniProt Q06418); conditions: 1 μM; Run 1, Run 2
T2 sequence (Q06418 41-890): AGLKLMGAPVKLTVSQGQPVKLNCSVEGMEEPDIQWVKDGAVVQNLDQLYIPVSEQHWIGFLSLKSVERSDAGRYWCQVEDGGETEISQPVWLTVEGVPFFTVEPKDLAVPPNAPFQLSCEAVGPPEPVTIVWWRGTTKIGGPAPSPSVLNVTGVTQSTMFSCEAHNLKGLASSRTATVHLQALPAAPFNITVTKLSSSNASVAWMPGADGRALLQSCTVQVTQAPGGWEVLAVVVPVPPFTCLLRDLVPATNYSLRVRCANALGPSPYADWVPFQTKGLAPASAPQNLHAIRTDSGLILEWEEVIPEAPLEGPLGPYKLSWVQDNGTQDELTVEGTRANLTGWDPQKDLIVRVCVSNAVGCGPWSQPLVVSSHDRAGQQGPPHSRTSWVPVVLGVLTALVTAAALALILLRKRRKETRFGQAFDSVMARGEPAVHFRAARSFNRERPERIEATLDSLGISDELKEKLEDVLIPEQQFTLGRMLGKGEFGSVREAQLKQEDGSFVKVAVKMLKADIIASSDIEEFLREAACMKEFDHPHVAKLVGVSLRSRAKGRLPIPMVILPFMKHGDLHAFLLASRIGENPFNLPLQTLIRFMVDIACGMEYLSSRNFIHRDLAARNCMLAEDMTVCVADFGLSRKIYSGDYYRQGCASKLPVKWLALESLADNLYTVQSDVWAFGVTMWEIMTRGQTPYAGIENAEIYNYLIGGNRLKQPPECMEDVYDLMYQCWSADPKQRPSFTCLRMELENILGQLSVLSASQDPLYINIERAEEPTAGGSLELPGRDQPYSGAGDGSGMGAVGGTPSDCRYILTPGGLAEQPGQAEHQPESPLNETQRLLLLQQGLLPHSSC

EPHA4 = EPHA4 (Homo sapiens, UniProt P54764); experiment: biochemical; conditions: read-out: % enzyme activity, 1 μM; Run 1, Run 2
c-Src = c-Src (Homo sapiens, UniProt P12931); conditions: 1 μM; Run 1, Run 2
TSSK3/STK22C = target: T3, TSSK3/STK22C (Homo sapiens, UniProt Q96PN8); conditions: 1 μM; Run 1, Run 2
T3 sequence (Q96PN8 1-268): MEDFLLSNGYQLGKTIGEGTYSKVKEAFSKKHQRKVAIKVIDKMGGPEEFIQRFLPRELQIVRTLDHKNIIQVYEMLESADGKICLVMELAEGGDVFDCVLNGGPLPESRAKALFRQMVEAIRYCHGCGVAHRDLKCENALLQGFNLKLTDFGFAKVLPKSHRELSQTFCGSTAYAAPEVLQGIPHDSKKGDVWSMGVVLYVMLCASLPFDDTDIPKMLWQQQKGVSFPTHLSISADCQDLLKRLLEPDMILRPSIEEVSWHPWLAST

STK22D/TSSK1 = target: T4, STK22D/TSSK1 (Homo sapiens, UniProt Q9BXA7); experiment: biochemical; conditions: read-out: % enzyme activity, 1 μM; Run 1, Run 2
T4 sequence (Q9BXA7 1-367): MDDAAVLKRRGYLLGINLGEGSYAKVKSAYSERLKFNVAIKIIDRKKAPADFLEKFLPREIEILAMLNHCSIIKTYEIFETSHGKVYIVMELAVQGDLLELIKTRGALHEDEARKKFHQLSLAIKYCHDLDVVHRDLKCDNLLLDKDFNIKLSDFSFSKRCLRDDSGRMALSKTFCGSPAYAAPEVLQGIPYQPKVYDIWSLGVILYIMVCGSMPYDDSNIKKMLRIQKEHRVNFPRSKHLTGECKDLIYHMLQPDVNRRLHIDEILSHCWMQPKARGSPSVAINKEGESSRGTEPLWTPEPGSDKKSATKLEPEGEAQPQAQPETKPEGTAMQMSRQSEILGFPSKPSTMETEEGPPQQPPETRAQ

Sequence of AURORA B (Q96GD4 whole entry): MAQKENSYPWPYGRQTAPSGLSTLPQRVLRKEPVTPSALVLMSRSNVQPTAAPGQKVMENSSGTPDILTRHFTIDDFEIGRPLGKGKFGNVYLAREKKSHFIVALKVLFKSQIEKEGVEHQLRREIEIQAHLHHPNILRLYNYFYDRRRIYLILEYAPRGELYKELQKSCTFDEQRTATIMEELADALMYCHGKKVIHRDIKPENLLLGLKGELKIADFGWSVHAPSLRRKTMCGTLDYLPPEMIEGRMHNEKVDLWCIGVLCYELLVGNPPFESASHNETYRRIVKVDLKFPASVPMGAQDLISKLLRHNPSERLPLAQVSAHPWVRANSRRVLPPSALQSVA
Sequence of c-Src (P12931 whole entry): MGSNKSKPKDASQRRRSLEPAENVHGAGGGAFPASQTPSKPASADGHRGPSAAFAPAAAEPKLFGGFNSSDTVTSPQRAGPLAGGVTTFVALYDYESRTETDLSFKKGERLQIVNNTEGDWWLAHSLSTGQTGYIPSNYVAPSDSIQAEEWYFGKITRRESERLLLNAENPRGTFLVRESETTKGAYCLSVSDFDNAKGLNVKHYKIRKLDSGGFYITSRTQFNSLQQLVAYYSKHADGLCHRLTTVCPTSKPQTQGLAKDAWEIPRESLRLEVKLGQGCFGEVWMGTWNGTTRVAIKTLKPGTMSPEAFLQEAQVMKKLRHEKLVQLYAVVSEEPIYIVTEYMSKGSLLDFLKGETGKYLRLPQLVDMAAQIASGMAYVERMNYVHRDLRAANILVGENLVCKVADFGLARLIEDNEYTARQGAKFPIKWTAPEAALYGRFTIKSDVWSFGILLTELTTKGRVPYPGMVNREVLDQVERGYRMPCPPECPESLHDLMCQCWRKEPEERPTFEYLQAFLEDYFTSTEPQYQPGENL
Sequence of EPHA4 (P54764 20-986): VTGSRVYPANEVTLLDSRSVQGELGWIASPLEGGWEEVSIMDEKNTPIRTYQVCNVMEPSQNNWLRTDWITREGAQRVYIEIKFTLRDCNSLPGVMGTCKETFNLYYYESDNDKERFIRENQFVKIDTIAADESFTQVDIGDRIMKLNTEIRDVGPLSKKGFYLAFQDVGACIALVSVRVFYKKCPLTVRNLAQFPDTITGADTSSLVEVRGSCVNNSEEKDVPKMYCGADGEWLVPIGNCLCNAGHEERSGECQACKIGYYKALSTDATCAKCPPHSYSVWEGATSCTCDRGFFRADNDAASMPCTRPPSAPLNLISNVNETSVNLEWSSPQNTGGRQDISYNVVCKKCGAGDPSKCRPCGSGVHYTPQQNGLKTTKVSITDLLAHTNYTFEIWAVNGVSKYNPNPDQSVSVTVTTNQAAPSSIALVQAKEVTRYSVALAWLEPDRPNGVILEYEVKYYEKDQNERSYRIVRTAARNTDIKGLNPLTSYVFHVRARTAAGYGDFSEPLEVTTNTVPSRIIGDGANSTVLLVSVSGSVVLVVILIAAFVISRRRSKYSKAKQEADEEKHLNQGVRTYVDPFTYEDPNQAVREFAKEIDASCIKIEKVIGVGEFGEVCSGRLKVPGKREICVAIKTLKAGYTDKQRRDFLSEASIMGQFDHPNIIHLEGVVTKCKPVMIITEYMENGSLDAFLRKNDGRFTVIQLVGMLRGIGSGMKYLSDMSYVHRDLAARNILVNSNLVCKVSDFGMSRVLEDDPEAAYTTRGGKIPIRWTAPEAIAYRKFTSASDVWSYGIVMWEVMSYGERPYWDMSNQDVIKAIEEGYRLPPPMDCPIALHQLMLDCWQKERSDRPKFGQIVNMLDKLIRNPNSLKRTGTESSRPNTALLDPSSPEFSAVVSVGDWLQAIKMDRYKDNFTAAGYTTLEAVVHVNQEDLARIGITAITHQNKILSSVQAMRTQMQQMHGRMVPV
Sequence of MAST3 (O60307 whole entry): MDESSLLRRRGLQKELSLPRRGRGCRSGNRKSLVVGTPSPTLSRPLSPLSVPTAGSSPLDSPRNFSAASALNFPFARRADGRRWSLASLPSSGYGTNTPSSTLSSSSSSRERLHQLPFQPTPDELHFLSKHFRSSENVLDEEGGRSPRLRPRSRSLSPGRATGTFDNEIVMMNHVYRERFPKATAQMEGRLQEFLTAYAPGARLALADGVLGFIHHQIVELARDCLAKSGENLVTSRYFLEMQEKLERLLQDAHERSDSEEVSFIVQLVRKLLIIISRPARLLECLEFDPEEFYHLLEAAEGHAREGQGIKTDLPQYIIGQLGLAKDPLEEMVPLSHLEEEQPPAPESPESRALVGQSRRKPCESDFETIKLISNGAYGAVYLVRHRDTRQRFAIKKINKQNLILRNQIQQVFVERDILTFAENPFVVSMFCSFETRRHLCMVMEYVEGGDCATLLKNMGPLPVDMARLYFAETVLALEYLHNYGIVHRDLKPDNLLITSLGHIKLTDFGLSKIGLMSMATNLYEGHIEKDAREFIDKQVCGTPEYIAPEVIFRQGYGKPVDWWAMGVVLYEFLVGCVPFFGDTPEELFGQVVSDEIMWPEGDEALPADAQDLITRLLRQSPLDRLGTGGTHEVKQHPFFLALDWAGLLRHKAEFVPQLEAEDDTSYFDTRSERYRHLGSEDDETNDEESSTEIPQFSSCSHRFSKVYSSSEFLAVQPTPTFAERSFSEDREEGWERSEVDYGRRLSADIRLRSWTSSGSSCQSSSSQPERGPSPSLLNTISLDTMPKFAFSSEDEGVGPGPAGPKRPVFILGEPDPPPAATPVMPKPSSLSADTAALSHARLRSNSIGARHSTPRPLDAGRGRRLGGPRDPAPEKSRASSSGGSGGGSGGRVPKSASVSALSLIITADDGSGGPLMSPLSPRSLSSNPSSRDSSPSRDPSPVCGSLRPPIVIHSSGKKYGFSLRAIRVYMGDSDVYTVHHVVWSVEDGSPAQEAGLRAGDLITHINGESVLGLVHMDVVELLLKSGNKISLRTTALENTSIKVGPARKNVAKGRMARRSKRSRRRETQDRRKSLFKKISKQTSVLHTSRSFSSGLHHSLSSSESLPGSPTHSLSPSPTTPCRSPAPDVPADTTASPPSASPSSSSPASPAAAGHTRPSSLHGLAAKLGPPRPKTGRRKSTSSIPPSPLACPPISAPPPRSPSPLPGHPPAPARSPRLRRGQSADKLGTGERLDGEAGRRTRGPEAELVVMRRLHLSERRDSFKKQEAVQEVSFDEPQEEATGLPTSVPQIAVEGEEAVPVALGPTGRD

Structure (SMILES)	remaining activity at 1 µM (MAST3)	remaining activity at 1 µM (JAK3)	% enzyme activity (AURORA B)	% enzyme activity (TYRO3/SKY)	remaining activity at 1 µM (EPHA4)	% enzyme activity (c-Src)	% enzyme activity (TSSK3/STK22C)	remaining activity at 1 µM (STK22D/TSSK1)
COc1cc(-c2cncc(-c3ccc(N4C[C@@H](C)N(C)[C@@H](C)C4)cc3)c2C)cc(F)c1C(N)=O [Compound 26c, 2-Fluoro-6-methoxy-4-(4-methyl-5-(4-((3R,5S)-3,4,5-trimethylpiperazin-1-yl)phenyl)pyridin-3-yl)benzamide]	95.5%	101%	104.62%	93.66%	99.3%	97.10%	95.64%	101%
COc1cc(-c2cncc(-c3ccc(N4CCN(C)CC4)cc3)c2C)cc(F)c1C(N)=O [Compound 26a, 2-Fluoro-6-methoxy-4-(4-methyl-5-(4-(4-methylpiperazin-1-yl)phenyl)pyridin-3-yl)benzamide]	94.7%	106%	100.58%	83.48%	95.3%	96.22%	96.02%	97.5%
